What was measured:
DLD-1 BRCA2(−/−) = assay: Cell growth inhibition assay (CellTiter-Glo cell viability, 7 days); assay type: cell-based; conditions: Homo sapiens, 168 h, DLD-1 BRCA2(-/-) cells
[1] = system: MDA-MB-436 (mutated BRCA1) cell lines; assay: as above; assay type: cell-based; conditions: Homo sapiens, 168 h, MDA-MB-436 cells

Structure (SMILES)	EC50 (DLD-1 BRCA2(−/−)) [nM]	EC50 [1] [nM]
[2H]C([2H])([2H])NC(=O)c1ccc(N2CCN(Cc3cnc4cc(CC)c(=O)[nH]c4c3)[C@H]3C[C@H]32)cn1 (racemic) [Example 90]	6.4	4.3
CCc1cc2ncc(CN3CCN(c4ccc(NC(=O)[C@H]5CCO5)nc4)CC3)cc2[nH]c1=O (racemic) [Example 103]	6.6	5.2
CCc1cc2ncc([C@@H](C)N3CCN(c4ccc(C(=O)NC)nc4)CC3)cc2[nH]c1=O (single isomer, unassigned) [Example 20]	4.1	–
CCc1cc2ncc([C@H](C)N3CCN(c4ccc(C(=O)NC)nc4)CC3)cc2[nH]c1=O (single isomer, unassigned) [Example 21]	1.7	0.9
CCc1cc2ncc(CN3CCN(c4ccc(C(=O)N[C@H]5CCCOC5)nc4)CC3)cc2[nH]c1=O (single isomer, unassigned) [Example 53]	2.4	0.92
CCc1cc2ncc(CN3CCN(c4ccc(C(=O)N[C@@H]5CCCOC5)nc4)CC3)cc2[nH]c1=O (single isomer, unassigned) [Example 54]	2.8	1
CCc1cc2ncc(CN3CCN(c4cnc(C(=O)NC)c(F)c4)[C@H]4C[C@H]43)cc2[nH]c1=O (single isomer, unassigned) [Example 69]	7.3	4.4
CCc1cc2ncc(CN3CCN(c4ccc(C(=O)NC)nc4C#N)[C@H]4C[C@H]43)cc2[nH]c1=O (single isomer, unassigned) [Example 76]	1.6	0.98
CNC(=O)c1ccc(N2CCN(Cc3cnc4c(c3)[nH]c(=O)c3ccoc34)[C@@H]3C[C@@H]32)cn1 (single isomer, unassigned) [Example 85]	14	13
CCc1cc2ncc(CN3CCN(c4ccc(C(=O)NC5COC5)nc4)[C@@H]4C[C@@H]43)cc2[nH]c1=O (single isomer, unassigned) [Example 88]	4.2	3.8
[2H]C([2H])([2H])NC(=O)c1ccc(N2CCN(Cc3cnc4cc(CC)c(=O)[nH]c4c3)[C@@H]3C[C@@H]32)cn1 (single isomer, unassigned) [Example 96]	2.9	1.7
CNC(=O)c1ccc(N2CCN(Cc3cnc4cc(C)c(=O)[nH]c4c3)[C@H]3C[C@H]32)c(C#N)n1 (single isomer, unassigned) [Example 98]	2	1.2
CNC(=O)c1ccc(N2CCN(Cc3cnc4cc(C)c(=O)[nH]c4c3)[C@H]3C[C@H]32)cn1 (single isomer, unassigned) [Example 99]	16	11
[2H]C([2H])([2H])NC(=O)c1ccc(N2CCN(Cc3cnc4cc(C5CC5)c(=O)[nH]c4c3)[C@H]3C[C@H]32)cn1 (single isomer, unassigned) [Example 107]	9.1	2.5
Cc1cc2ncc(CN3CCN(c4ccc(C(=O)NC5CC5)nc4)[C@@H]4C[C@@H]43)cc2[nH]c1=O (single isomer, unassigned) [Example 109]	37	14
CNC(=O)c1ccc(N2CCN(Cc3cnc4cc(C5CC5)c(=O)[nH]c4c3)[C@H]3C[C@H]32)cn1 (single isomer, unassigned) [Example 110]	5.7	3.3
CCc1cc2ncc(CN3CCN(c4ccc(C(=O)NC5CC5)nc4)[C@@H]4C[C@@H]43)cc2[nH]c1=O (single isomer, unassigned) [Example 111]	4.6	1.8
O=C(NC1CC1)c1ccc(N2CCN(Cc3cnc4cc(C5CC5)c(=O)[nH]c4c3)[C@H]3C[C@H]32)cn1 (single isomer, unassigned) [Example 112]	7.8	3.3
CNC(=O)c1ncc(N2CCN(Cc3cnc4cc(C5CC5)c(=O)[nH]c4c3)[C@H]3C[C@H]32)cc1F (single isomer, unassigned) [Example 113]	45	20
CCc1cc2ncc(CN3CCN(c4ccc(C(=O)NC)c(=O)n4C)[C@@H]4C[C@@H]43)cc2[nH]c1=O (single isomer, unassigned) [Example 114]	11	5.1
CNC(=O)c1ccc(N2CCN([C@@H](C)c3cnc4cc(C)c(=O)[nH]c4c3)C[C@H]2C)cn1 (single isomer, unassigned) [Example 121]	43	35
CNC(=O)c1ccc(N2CCN([C@H](C)c3cnc4cc(C)c(=O)[nH]c4c3)C[C@H]2C)cn1 (single isomer, unassigned) [Example 122]	46	11
CNC(=O)c1ccc(N2CCN([C@@H](C)c3cnc4cc(C)c(=O)[nH]c4c3)CC2)cn1 (single isomer, unassigned) [Example 124]	7.5	17
CNC(=O)c1ccc(N2CCN([C@H](C)c3cnc4cc(C)c(=O)[nH]c4c3)CC2)cn1 (single isomer, unassigned) [Example 125]	8.5	13
Cc1cc2ncc([C@H](C)N3CCN(c4ccc(C(=O)NC5CC5)nc4)CC3)cc2[nH]c1=O (single isomer, unassigned) [Example 126]	14	4.3

Structure (SMILES)	EC50 (DLD-1 BRCA2(−/−)) [nM]	EC50 [1] [nM]
Cc1cc2ncc([C@@H](C)N3CCN(c4ccc(C(=O)NC5CC5)nc4)CC3)cc2[nH]c1=O (single isomer, unassigned) [Example 127]	15	7.3
CNC(=O)c1ccc(N2CCN(Cc3cnc4cc([C@@H]5CC5(F)F)c(=O)[nH]c4c3)CC2)cn1 (single isomer, unassigned) [Example 143]	13	12
CNC(=O)c1ccc(N2CCN(Cc3ccc4c5c(c(=O)[nH]c4c3)CCO5)CC2)cn1 [Example 18, N-methyl-5-[4-({4-oxo-2H,3H,5H-furo[3,2-c]quinolin-7-yl}methyl)piperazin-1-yl]pyridine-2-carboxamide]	5.1	2.3
CCc1cc2ncc(CN3CCN(c4ccc(-c5ncc[nH]5)nc4)CC3)cc2[nH]c1=O [Example 19, 3-ethyl-7-({4-[6-(1H-imidazol-2-yl)pyridin-3-yl]piperazin-1-yl}methyl)-1H-1,5-naphthyridin-2-one]	3.7	1.8
CCc1cc2ncc(CN3CCN4c5ccc(C(=O)NC)nc5OC[C@@H]4C3)cc2[nH]c1=O [Example 22B, (10S)-12-[(7-ethyl-6-oxo-5H-1,5-naphthyridin-3-yl)methyl]-N-methyl-8-oxa-1,6,12-triazatricyclo[8.4.0.0^{2,7}]tetradeca-2,4,6-triene-5-carboxamide]	490	160
CCc1cc2ncc(CN3CCC(c4cnc(C(=O)NC)c(F)c4)CC3)cc2[nH]c1=O [Example 23, 5-{1-[(7-ethyl-6-oxo-5H-1,5-naphthyridin-3-yl)methyl]piperidin-4-yl}-3-fluoro-N-methylpyridine-2-carboxamide]	6	2.2
CCc1cc2ncc(CN3CC(N(C)c4ccc(C(=O)NC)nc4)C3)cc2[nH]c1=O [Example 26, 5-({1-[(7-ethyl-6-oxo-5H-1,5-naphthyridin-3-yl)methyl]azetidin-3-yl}(methyl)amino)-N-methylpyridine-2-carboxamide]	33	39
CNC(=O)c1ccc(N2CCN(Cc3cnc4cc(C)c(=O)[nH]c4c3)CC2)c(C#N)n1 [Example 37]	1.4	0.5
CNC(=O)c1ccc(N2CCN(Cc3cnc4cc(C)c(=O)[nH]c4c3)CC2)c(C#N)c1 [Example 38]	7.6	5.3
CCc1cc2ncc(CN3CCN(c4cnc(C(=O)NC)c(F)c4)[C@H](C)C3)cc2[nH]c1=O [Example 39]	3.3	2.7
CCc1cc2ncc(CN3CCN(c4ccc(C(=O)NC[C@@H]5CCOC5)nc4)CC3)cc2[nH]c1=O [Example 40]	6.7	4.4
CCc1cc2ncc(CN3CCN(c4ccc(C(=O)NC[C@H]5CCOC5)nc4)CC3)cc2[nH]c1=O [Example 41]	2.4	1.9
CCc1cc2ncc(CN3CCN(c4ccc(C(=O)NCCOC)nc4)CC3)cc2[nH]c1=O [Example 42]	3.3	4.1
CCc1cc2ncc(CN3CCN(c4ccc(C(=O)NC(C)C)nc4)CC3)cc2[nH]c1=O [Example 43]	2.4	3.2
CCc1cc2ncc(CN3CCN(c4ccc(C(=O)NC5CCOCC5)nc4)CC3)cc2[nH]c1=O [Example 44]	7.4	5.3
CCc1cc2ncc(CN3CCN(c4ccc(C(=O)N[C@H]5C[C@@](C)(O)C5)nc4)CC3)cc2[nH]c1=O [Example 45]	16	4.3
CCc1cc2ncc(CN3CCN(c4ccc(C(=O)NC5COC5)nc4)CC3)cc2[nH]c1=O [Example 46]	3.7	1.2
CCc1cc2ncc(CN3CCN(c4ccc(C(=O)N[C@H]5CCOC5)nc4)CC3)cc2[nH]c1=O [Example 47]	7.7	3.3
CCc1cc2ncc(CN3CCN(c4ccc(C(=O)N[C@@H]5CCOC5)nc4)CC3)cc2[nH]c1=O [Example 48]	2.7	1.7
CCc1cc2ncc(CN3CCN(c4ccc(C(=O)N[C@H]5CCC[C@@H]5O)nc4)CC3)cc2[nH]c1=O [Example 49]	5.5	2.4
CCc1cc2ncc(CN3CCN(c4ccc(C(=O)NCCC#N)nc4)CC3)cc2[nH]c1=O [Example 50]	4.5	2.1
CCc1cc2ncc(CN3CCN(c4cc(F)c(C(=O)NC)cn4)CC3)cc2[nH]c1=O [Example 51]	17	6.4
CCc1cc2ncc(CN3CCN(c4ccc(C(=O)NCC(C)(C)O)nc4)CC3)cc2[nH]c1=O [Example 52]	12	4
CCc1cc2ncc(CN3CCN(c4ccc(C(=O)N[C@H]5C[C@](C)(O)C5)nc4)CC3)cc2[nH]c1=O [Example 55]	11	1.4
CCc1cc2ncc(CN3CCN(c4ccc(C(=O)NC[C@@H](C)O)nc4)CC3)cc2[nH]c1=O [Example 57]	11	3.6
